Results taken from patent US6492124B1, “Trance activated signal transduction pathways in osteoclasts” (The Rockefeller University, priority 1999, dated 2002).

System: PKB
Assay: PKB activation in dendritic cells (phospho-PKB Western blot)
Assay type: cell-based, mouse
Experimental: FIG. 1. TRANCE activates p44/42 ERK, NF-κB and PKB in osteoclasts and dendritic cells. (A) Mature bone marrow-derived osteoclasts were stimulated for the indicated times with recombinant hCD8-TRANCE (TRANCE; 1 μg/ml). Levels of phosphorylated forms of p44/p42 ERK (p44 ERK^P and p42 ERK^P), IκBα (IκB-α^P) and PKB (PKB^P) in whole cell extracts were determined using phospho-peptide-specific antibodies as indicated in the figure. The membranes were stripped and incubated with antibodies against the p44/p42 ERK, IκB-α, and PKB as indicated to confirm that similar amounts of whole cell extracts were analyzed. Note the decrease of IκB-α after 10 min of treatment due to its degradation. (B) as in (A) except the use of mature bone marrow-derived dendritic cells instead of osteoclasts.
FIG. 2. TRANCE-induced PKB activation in osteoclasts and dendritic cells is blocked by inhibitors of PI3-kinase, tyrosine kinases and Src family kinases. (A) Osteoclasts were serum starved and then pretreated for 90 min with LY294002 (10 μM), Herbimycin A (Herb. A; 10 μM), and PP1 (10 μM) inhibitors which are specific for PI3-kinase, PTKs, and Src-family kinases, respectively, were stimulated for indicated times with TRANCE (1 μg/ml). Levels of phosphorylated p44/p42 ERK, PKB, and IκB-α were determined as described in FIG. 1. Cells pretreated with vehicle (DMSO) were used as a negative control. (B) as in (A) except the use of mature bone marrow-derived dendritic cells.
FIG. 6. Cytokine receptors that engage TRAF6 activate PKB through Src-family kinases. (A) Dendritic cells were treated with TNF (10 ng/ml), TRANCE (5 μg/ml), LPS (50 μg/ml), or IL-1α (20 ng/ml) for the indicated times (min). The activation of PKB was determined in whole cell extracts using a phospho-PKB-specific antibody as described in FIG. 1. (B) Dendritic cells were pretreated with vehicle (DMSO) or the Src-family kinase inhibitor, PP1 (10 μM) for 90 minutes followed by a 15 minute treatment with TRANCE (5 μg/ml), LPS (50 μg/ml), or IL-1α (20 ng/ml) or no treatment at all (−). The activation of PKB was determined as described in FIG. 1.
Primary cells and cell lines. Osteoclasts and macrophages were generated from bone marrow precursors as described (Wani, et al., Endocrinology, 140:[…], 1999). In brief, bone marrow cells from tibiae and femur of 4-6 week old mice (C57BL/6, Jackson Laboratories) were cultured overnight in media (α-MEM, 10% FCS) in the presence of CSF-1 (5 ng/ml). After 24 hours, non-adherent cells were harvested, washed, and further cultured in media with CSF-1 (50 ng/ml) plus TRANCE (10 ng/ml) to develop osteoclasts, or with CSF-1 alone to develop macrophages. Using these conditions, after 4 days of culture, greater than 95 percent of the adherent cells were osteoclasts or macrophages. For experiments described in this study, only adherent cells were used after extensive washing. Mature dendritic cells were generated from bone marrow precursors of 4-6 week old female C57BL/6 mice (C57BL/6, Jackson Laboratories) cultured in media (RPMI1640, 5% FBS) and GM-CSF (1:30 cultured supernatant from the J558 cell line, a gift from Dr. R. M. Steinman, The Rockefeller University) for 8 days as previously described (Inaba, et al., J. Exp. Med., 176:1693-1702, 1992). To generate osteoclasts and dendritic cells from c-Src deficient mice, spleen cells, which contain hematopoietic precursors due to extramedullary hematopoeisis, were substituted for bone marrow cells as previously described (Schwartzberg, et al., Genes Dev., 11:2835-2844, 1997). Mature spleen-derived dendritic cells were isolated from spleens treated with collagenase (40 U/ml; Boehinger Mannheim) and subjected to a Nycodenz centrifugation gradient (14.5%; Nycomed) to obtain low density cells. After allowing them adhere for 2 hours to a tissue culture dish, contaminating floater cells were washed away and mature dendritic cells were obtained by overnight culture.
Cell stimulation, cell transfection and in vitro assays. […]

TNF-related activation-induced cytokine [TRANCE]
PKB activation in dendritic cells stimulated with cytokine (TNF 10 ng/ml, TRANCE 5 μg/ml, LPS 50 μg/ml, IL-1α 20 ng/ml, CD40L data not shown): activated | PKB activation in dendritic cells from c-Src−/− mice (TRANCE-treated, compared with wild-type): not significantly reduced | time for which PKB activity was sustained (dendritic cells, TRANCE stimulation): greater than 3 hours | phosphorylated form of PKB upon TRANCE stimulation (dendritic cells, after 5 minutes, TRANCE 1 μg/ml): increase
